Experimental data as given in patent US12234258B2, “Timosaponin compounds” (priority 2012, dated 2025).
Read-outs that look alike come from different tables or passages of the source. Each block holds one molecule with its values, some of them ahead of it.

Legend:
Format in all cases: cell-based
[1] = system: SW480, human colon adenocarcinoma cells; assay: Growth of cancer cell lines: SW480; settings: mean ± S.D., n = 3; read-out: IC50 against growth of SW480
[2] = system: HepG2, human hepatoma cells; assay: Growth of cancer cell lines: HepG2; settings: mean ± S.D., n = 3; read-out: IC50 against growth of HepG2
[3] = system: Aβ1-42 production in SweAPP N2A cells (N2A-APPswe); assay: Aβ1-42 ELISA of conditioned medium of SweAPP N2A cells
Experimental: Neuro-2A cells expressing Swedish mutants of (“SweAPP N2A cells”) was cultured in minimal essential medium with glutamine (2 mM), pyruvate (2 mM) and fetal bovine serum (10%). Cells were seeded at 6-well plate at 1×10^6 cells/mL and grown overnight. The medium was replaced.
Conditioned medium was diluted with 2 part volume of ELISA diluents. Aβ1-42 concentrations were determined by using human Aβ1-42 ultrasensitive ELISA kit (manufactured by Invitrogen).
Cell culture: Neuro-2A cells expressing Swedish mutants of APP (N2A-APPswe) ENREF 12 was cultured in minimal essential medium with 2 mM glutamine, 2 mM pyruvate and 10% fetal bovine serum. Cells were seeded at 6-well plate at 1×10^6 cells/mL and grown for two days until confluence. The medium was replaced and the test compounds were added at indicated concentrations for 24 hr.

[4] = system: NCI-H460, human non-small lung carcinoma cells; assay: Growth of cancer cell lines: NCI-H460; settings: mean ± S.D., n = 3; read-out: IC50 against growth of NCI-H460
[5] = system: HeLa, human cervical carcinoma cells; assay: Growth of cancer cell lines: HeLa; settings: mean ± S.D., n = 3; read-out: IC50 against growth of HeLa
[6] = system: Aβ42, Aβ40 and Aβ38 in N2A-APPswe cells; assay: Aβ42, Aβ40 and Aβ38 profiles in conditioned medium by ELISA; settings: FIG. 18, 18 hr
Experimental: Aβ ELISA: Aβ concentrations in conditioned medium were assayed using ELISA kits for human Aβ40, human Aβ42 (ultrasensitive) (Invitrogen) and Aβ38 (MyBioSource).
Cells were treated with various concentrations of (TAIII/TAI/AA/TAV) and DMSO vehicle (C) for 18 hr. In part A of FIG. 18, the expression of full length (FL) and CTF (c99 and c83) in cell lysates and secreted APP (sAPPα and sAPPP) in the conditioned medium were examined by immunoblot using methods specified in Example 6. In part B of FIG. 18, the profiles of Aβ42, Aβ40 and Aβ38 in the conditioned medium were determined by ELISA using methods specified in Example 5.

Neuro-2A cells = assay: Neurite outgrowth of N2A cells; settings: FIG. 19; TAIII 5 μM, TAI 10 μM, SSG 25 μM, 18 hr, type III β-tubulin staining
Experimental: Immunofluorescence examination of neurite outgrowth: Neuro-2A cells were seeded at 1×10^5 cells per glass bottom dish. After treatment, cells were fixed with 4% paraformaldyde for 10 min, permeabilized with 0.1% Trition X-100, and then blocked with 1% BSA in PBS. The cells were incubated with monoclonal antibody raised against type III β-tubulin (Sigma) for 1 hr followed by Alexa488 conjugated secondary antibody. Neurite morphology was examined under fluorescence microscope.

[7] = system: Notch cleavage by γ-secretase in N2A-APPswe cells; assay: Notch cleavage by γ-secretase (NotchΔE/NICD immunoblot); settings: FIG. 20; at concentrations that effectively lower Aβ levels, 18 hr
Experimental: Immunoblot analysis: Cells were washed with phosphate buffered saline and lysed with buffer containing 50 mM Tris-Cl, pH 7.4, 150 mM NaCl, 1% Triton X-100 supplemented with protease inhibitors. Equal amount of proteins (30 μg) was resolved by 16.5% Tris-tricine gels and then transferred to nitrocellulose membrane with 0.2 µm pore size. For detection of secreted Aβ, sAPPα and sAPPβ, cells were treated with the timosaponins for 8 hr in complete medium which were then replaced with medium containing 0.1% FBS. After further incubation of 16 hr, 50 μL of the conditioned medium was mixed with SDS sample buffer and resolved accordingly. The membrane was blocked with Tris-buffered saline containing 0.1% TWEEN® 20 and 3% BSA and then incubated with primary antibodies at 4° C. overnight, followed with appropriate secondary antibodies for 2 hr. The primary antibodies were: APP c-terminal rabbit antibody (1:5000; Merck Bioscience) for detection of full length APP and APP-CTFs, mouse monoclonal 6E10 (Covance) for secreted Aβ and sAPPα, mouse monoclonal 6A1 (IBL) for sAPPβswe, ADAM-10 rabbit antibody (Millipore) and BACE1 rabbit antibody (Millipore). The immunoreactivities were detected using enhanced chemiluminescence reagents (GE Health care). […]

[8] = Table 4, N2A-APPswe cells, mean ± S.D, n ≥ 3, read-out: IC50 in lowering Aβ42 production
[9] = N2a-APPswe, read-out: IC50 in lowering Aβ42 production
[10] = Example 7, SweAPP N2A cells, Aβ1-42 ELISA, read-out: IC50, inhibition of Aβ production

IC50 [1]: > 100 µM | IC50 [2]: > 100 µM | IC50 [3, 8]: > 100 µM | IC50 [4]: > 100 µM | IC50 [5]: > 100 µM
Structure (SMILES): CO[C@]1(CC[C@H](C)CO[C@@H]2O[C@H](CO)[C@@H](O)[C@H](O)[C@H]2O)O[C@H]2C[C@H]3[C@@H]4CC[C@@H]5C[C@@H](O[C@@H]6O[C@H](CO)[C@H](O)[C@H](O)[C@H]6O[C@@H]6O[C@H](CO)[C@@H](O)[C@H](O)[C@H]6O)CC[C@]5(C)[C@H]4CC[C@]3(C)[C@H]2[C@@H]1C [Timosaponin BI]

Structure (SMILES): C[C@@H]1CC[C@@]2(OC1)O[C@H]1C[C@H]3[C@@H]4CC[C@H]5C[C@@H](O)CC[C@]5(C)[C@H]4CC[C@]3(C)[C@H]1[C@@H]2C [Tigogenin]
IC50 [3, 9]: > 100 µM

IC50 [1]: 21.7 ± 2.27 µM | IC50 [2]: 17.4 ± 4.29 µM | IC50 [3, 8]: 4.2 ± 1.2 µM | IC50 [4]: 20 ± 0.71 µM | IC50 [5]: 21.6 ± 5.2 µM
Structure (SMILES): C[C@H]1CC[C@@]2(OC1)O[C@H]1C[C@H]3[C@@H]4CC[C@@H]5C[C@@H](O[C@@H]6O[C@H](CO)[C@H](O[C@@H]7O[C@H](CO)[C@@H](O)[C@H](O)[C@H]7O)[C@H](O)[C@H]6O[C@@H]6O[C@H](CO)[C@@H](O)[C@H](O)[C@H]6O)CC[C@]5(C)[C@H]4CC[C@]3(C)[C@H]1[C@@H]2C [Timosaponin AV]
Aβ profile (Aβ42 vs Aβ40 and Aβ38) [6]: preferentially lower Aβ42 production

IC50 [3, 8]: > 100 µM
Structure (SMILES): C[C@H]1CC[C@@]2(OC1)O[C@H]1C[C@H]3[C@@H]4CC=C5C[C@@H](O)CC[C@]5(C)[C@H]4CC[C@]3(C)[C@H]1[C@@H]2C [Yamogenin]

Structure (SMILES): C[C@@H]1CC[C@@]2(OC1)O[C@H]1C[C@H]3[C@@H]4CC[C@@H]5CC(=O)CC[C@]5(C)[C@H]4CC[C@]3(C)[C@H]1[C@@H]2C [Sarsasapogenone]
IC50 [3, 8]: 50 ± 5 µM

Structure (SMILES): C[C@H]1CC[C@@]2(OC1)O[C@H]1C[C@H]3[C@@H]4CC[C@@H]5C[C@@H](O)CC[C@]5(C)[C@H]4CC[C@]3(C)[C@H]1[C@@H]2C [Sarsasapogenin]
IC50 [1]: 29.4 ± 5.09 µM | IC50 [2]: 32.6 ± 4.58 µM | IC50 [3, 10]: ~20 µM | IC50 [3, 8]: 53 ± 9 µM | IC50 [4]: 19.2 ± 0.45 µM | Neurite outgrowth (Neuro-2A cells): significant extension and branching of neurites | Notch processing (NotchΔE and NICD) [7]: did not affect the Notch processing | IC50 [5]: 50 ± 2 µM

IC50 [3, 8]: > 100 µM
Structure (SMILES): C[C@@H]1CC[C@@]2(OC1)O[C@H]1C[C@H]3[C@@H]4CC=C5C[C@@H](O)CC[C@]5(C)[C@H]4CC[C@]3(C)[C@H]1[C@@H]2C [Diosgenin]

IC50 [1]: 12.1 ± 3.83 µM | IC50 [2]: 10.5 ± 4.64 µM | IC50 [3, 10]: ~20 µM | IC50 ([3]; Example 9, SweAPP N2A cells, Aβ1-42 ELISA, read-out: ICS50, inhibitor of Aβ production): 5 µM | IC50 [3, 8]: 6.1 ± 2.8 µM | IC50 [4]: 10.2 ± 4.64 µM | IC50 [5]: 44.5 ± 1.15 µM
Structure (SMILES): C[C@H]1CC[C@@]2(OC1)O[C@H]1C[C@H]3[C@@H]4CC[C@@H]5C[C@@H](O[C@@H]6O[C@H](CO)[C@H](O)[C@H](O)[C@H]6O)CC[C@]5(C)[C@H]4CC[C@]3(C)[C@H]1[C@@H]2C [Timosaponin AI]
Neurite outgrowth (Neuro-2A cells): significant extension and branching of neurites | Aβ profile (Aβ42 vs Aβ40 and Aβ38) [6]: preferentially lower Aβ42 production

Structure (SMILES): C[C@H]1CC[C@@]2(OC1)O[C@H]1C[C@H]3[C@@H]4CC[C@H]5C[C@@H](O)CC[C@]5(C)[C@H]4CC[C@]3(C)[C@H]1[C@@H]2C [Neotigogenin]
IC50 [3, 9]: > 100 µM

Structure (SMILES): C[C@@H]1CC[C@@]2(OC1)O[C@H]1C[C@H]3[C@@H]4C[C@@H](O)[C@@H]5C[C@@H](O)CC[C@]5(C)[C@H]4CC[C@]3(C)[C@H]1[C@@H]2C [5β-H, 6β-OH diosgenin]
IC50 [3, 8]: > 100 µM

Structure (SMILES): C[C@H]1CC[C@@]2(OC1)O[C@H]1C[C@H]3[C@@H]4CC[C@@H]5C[C@@H](OCC(=O)O)CC[C@]5(C)[C@H]4CC[C@]3(C)[C@H]1[C@@H]2C [Ethereal SSG]
IC50 [3, 9]: 27 ± 8 µM | Notch processing (NotchΔE and NICD) [7]: did not affect the Notch processing

Structure (SMILES): C[C@H]1CC[C@@]2(OC1)O[C@H]1C[C@H]3[C@@H]4CC[C@@H]5C[C@@H](O[C@@H]6O[C@H](CO)[C@@H](O)[C@H](O)[C@H]6O)CC[C@]5(C)[C@H]4CC[C@]3(C)[C@H]1[C@@H]2C [Asparagoside A]
IC50 [1]: 15.6 ± 1.96 µM | IC50 [2]: 7.72 ± 2.68 µM | IC50 [3, 8]: 6 ± 1.4 µM | IC50 [4]: 14.1 ± 0.64 µM | Neurite outgrowth (Neuro-2A cells): significant extension and branching of neurites | IC50 [5]: 65.4 ± 20.9 µM | Aβ profile (Aβ42 vs Aβ40 and Aβ38) [6]: preferentially lower Aβ42 production

Structure (SMILES): CC(CO)CCC1OC2CC3C4CCC5CC(O)CCC5(C)C4CCC3(C)C2C1C (stereo not shown) [Dihydrosarsasapogenin]
IC50 [3, 8]: > 100 µM

IC50 [3, 8]: > 100 µM
Structure (SMILES): C[C@@H]1CC[C@@]2(OC1)O[C@H]1C[C@H]3[C@@H]4CC=C5C[C@@H](O[C@@H]6O[C@H](CO)[C@H](O)[C@H](O)[C@H]6O)CC[C@]5(C)[C@H]4CC[C@]3(C)[C@H]1[C@@H]2C [Capsicoside A3]

Structure (SMILES): C[C@@H]1CC[C@@]2(OC1)O[C@H]1C[C@H]3[C@@H]4CC[C@@H]5C[C@@H](O)CC[C@]5(C)[C@H]4CC[C@]3(C)[C@H]1[C@@H]2C [Smilagenin]
IC50 [3, 9]: > 100 µM

IC50 [3, 8]: > 100 µM
Structure (SMILES): CC(C)[C@@H](C)/C=C/[C@@H](C)[C@H]1CC[C@H]2C3=CC=C4C[C@@H](O)CC[C@]4(C)[C@H]3CC[C@]12C [Ergosterol, reference compound]

Structure (SMILES): C[C@@H]1CC[C@@]2(OC1)O[C@H]1C[C@H]3[C@@H]4C[C@H](O)[C@H]5C[C@@H](O)CC[C@]5(C)[C@H]4CC[C@]3(C)[C@H]1[C@@H]2C [5α-H, 6α-OH diosgenin]
IC50 [3, 8]: > 100 µM

Structure (SMILES): C[C@@H](CC[C@@]1(O)O[C@H]2C[C@H]3[C@@H]4CC[C@@H]5C[C@@H](O[C@@H]6O[C@H](CO)[C@H](O)[C@H](O)[C@H]6O[C@@H]6O[C@H](CO)[C@@H](O)[C@H](O)[C@H]6O)CC[C@]5(C)[C@H]4CC[C@]3(C)[C@H]2[C@@H]1C)CO[C@@H]1O[C@H](CO)[C@@H](O)[C@H](O)[C@H]1O [Timosaponin BII]
IC50 [1]: > 100 µM | IC50 [2]: > 100 µM | IC50 [4]: > 100 µM | IC50 [5]: > 100 µM

Structure (SMILES): C[C@H]1CC[C@@]2(OC1)O[C@H]1C[C@H]3[C@@H]4C[C@@H](O)[C@@H]5C[C@@H](O)CC[C@]5(C)[C@H]4CC[C@]3(C)[C@H]1[C@@H]2C [5β-H, 6β-OH yamogenin]
IC50 [3, 8]: 45 ± 4 µM

Structure (SMILES): C[C@H]1CC[C@@]2(OC1)O[C@H]1C[C@H]3[C@@H]4C[C@H](O)[C@H]5C[C@@H](O)CC[C@]5(C)[C@H]4CC[C@]3(C)[C@H]1[C@@H]2C [5α-H, 6α-OH yamogenin]
IC50 [3, 8]: > 100 µM

Structure (SMILES): C[C@H]1CC[C@@]2(OC1)O[C@H]1C[C@H]3[C@@H]4CC[C@@H]5C[C@H](O)CC[C@]5(C)[C@H]4CC[C@]3(C)[C@H]1[C@@H]2C [Episarsasapogenin]
IC50 [3, 8]: > 100 µM
